{
  "source": "patent US20230226218A1",
  "about": "“Red Cell Extracellular Vesicles (RCEVs) Containing Cargoes and Methods of Use and Production Thereof” (ERYTECH PHARMA, priority 2020, published 2023)",
  "assay_type_in_all_cases": "cell-based, human",
  "key": {"STING": {"test_system": "STING", "experiment": "THP1-Dual IRF-Lucia luciferase reporter assay (QUANTI-Luc)", "details": "0.5, 1.0, 1.5, 2.0 μg/mL STINGa; 100k cells/well; 24 h", "procedure": "First, indirect measurements were made using the THP1-Dual™ cells (InvivoGen), which are derived from the human THP-1 monocyte cell line and contain a stably integrated inducible IRF-Lucia luciferase reporter construct that expresses luciferase when STING is activated (e.g. by STING agonists including CDN).\nBriefly, 100k cells/well were seeded and then treated with different concentrations of free STING agonist (“STINGa”) (0.5, 1.0, 1.5, and 2.0 μg/mL), EVs-STINGa (also referred to as “ERY-STINGa-CLRCEV” or “STINGa-CLRCEV” throughout) (0.5, 1.0, 1.5, and 2.0 μg/mL, carried by the indicated amounts of EVs), and EVs-proRBC. After 24 h, the supernatants were recovered and subjected to QUANTI-Luc™ detection according to the manufacturer's instructions. […] If so, it is envisioned that the in vivo efficacy of EV-STINGa (or any EV-[immune modulator] for that matter) will depend upon the capacity of target cells for taking up the CLRCEVs. It is further envisioned that if the THP1-Dual monocytes had been differentiated into macrophages, the highest dose of EVs-STINGa would have elicited at least as much luciferase activity as the highest dose of free STINGa."}, "THP1-derived macrophages": {"test_system": "THP1-derived macrophages", "experiment": "pHrodo in vitro phagocytosis assay, THP1-derived macrophages", "details": "25k EVs/cell, STINGa 0.14 μg/ml, 48 h, FIG. 18-19", "source_text": "To test the ability of the RCEVs and CLRCEVs to be taken up by immune cells, we developed an in vitro phagocytosis protocol based upon the THP1 monocyte cell line. Briefly, we determined THP1 cells could be effectively differentiated to become more macrophage-like by treating them with PMA for 3 days followed by 4 days of resting in culture media without PMA. Thereafter, we applied various test substances (e.g. EVs-STINGa, EVs-proRBC, free STINGa, each+/=a reporter dye) to either the undifferentiated or differentiated THP1 cells and observed the phagocytosis activity.\nAs shown schematically in FIG. 12, pHrodo®-labeled cells or vesicles (e.g. EVs) are added to phagocytic cells, but while they are outside of the cells, there is little to no fluorescence at the approximately pH 7.4 extracellular environment. When the relevant cellular receptors are engaged, a phagocytic cup forms around the labeled cells or vesicles. Finally, an acidic phagosome forms, causing the pHrodo® to emit fluorescence.\nAs an initial study, the THP1 cells were seeded as follows: 24,000, 34,000, and 44,000 cells/well. […] Labeled EVs-STINGa were added to differentiated THP1 cells and incubated for 12 h and the […] device was set to read the wells every 30 minutes. […] In these greyscale micrograms, the original red fluorescence appears black inside the cells. […]"}, "THP1 macrophages": {"test_system": "THP1 macrophages", "experiment": "Cytokine release by THP1 macrophages (BioLegend bead kit, flow cytometry)", "procedure": "In a second approach, the levels of IL-1b, IL-6, TNF-α, and IFN-β were measured after THP1 macrophages were incubated with varying concentrations of STINGa, STINGa-CLRCEVs, or proRBC EVs.\n[…] Supernatants were collected at 6 h and 24 h after stimulation and frozen until quantification. Supernatants were analyzed by flow cytometry using the BioLegend kit with four (4) different beads recognizing IL-1b, IL-6, TNF-α, IFN-β.\nIt has been reported that vesicles from packed red blood cell (pRBC) units bind to monocytes and induce proinflammatory cytokines, boosting T-cell responses in vitro (Danesh et al 2013). To test whether CLRCEVs and/or RCEVs would likewise induce these cytokines, THP1 macrophages were grown and treated as before and the levels of IL-6, IL-1b, and TNF-α were measured."}},
  "data": [
    {"compound": "Nc1ncnc2c1ncn2[C@@H]1O[C@@H]2COP(=O)([S-])O[C@@H]3[C@H](O)[C@@H](COP([O-])(=S)O[C@H]2[C@H]1O)O[C@H]3n1cnc2c(N)ncnc21.[Na+].[Na+]", "note": "(stereo partly drawn) [free STINGa, ADU-S100]", "values": [
      {"measurement": "luciferase activity (IRF pathway activation)", "setting": "STING", "result": "a clear dose response effect was observed"},
      {"measurement": "red fluorescence (uptake)", "setting": "THP1-derived macrophages", "result": "neither free STINGa+pHrodo nor pHrodo alone produced appreciable fluorescence"},
      {"measurement": "IFN-β", "setting": "THP1 macrophages; 3 μg/ml STINGa (EVs 7.6E10 EVs/mL), time not stated", "result": 140, "unit": "pg/mL"},
      {"measurement": "IFN-β", "setting": "THP1 macrophages; 8 μg/mL STINGa (EVs 2.0E11 EVs/mL), 6 h", "result": 400, "unit": "pg/mL"},
      {"measurement": "IFN-β", "setting": "THP1 macrophages; 8 μg/mL STINGa (EVs 2.0E11 EVs/mL), 24 h", "result": 318, "unit": "pg/mL"},
      {"measurement": "IL-6", "setting": "THP1 macrophages; 2.5E+10 EVs/mL, STINGa 1 μg/ml", "result": 25, "unit": "pg/mL"},
      {"measurement": "IL-6", "setting": "THP1 macrophages; 5.0E10 EVs/mL, STINGa 2 μg/ml", "result": 38, "unit": "pg/mL"},
      {"measurement": "IL-1b release", "setting": "THP1 macrophages; 8, 2 or 1 μg/mL, 6 h and 24 h", "result": "did not induce the release of IL-1b"},
      {"measurement": "IL-6", "setting": "THP1 macrophages; 24 h, 2.0E11 EVs/mL, STINGa 8 μg/ml", "result": 453, "unit": "pg/mL"}
    ]}
  ]
}
